The values that follow are results of earlier work, collected in patent US20190314449A1, “CYCLIC DIPEPTIDES AND WOUND HEALING” (THE BOARD OF REGENTS OF THE UNIVERSITY OF TEXAS SYSTEM, priority 2016, published 2019).

Structures are written as SMILES.

The conditions of data set [1]: human, acute oral, 24 mg/dose, cited from earlier work.
In another data set the test system is heme oxygenase 1. The following applies: neuronal cultures; cited from earlier work.

Turning to `O=C1NC(Cc2c[nH]cn2)C(=O)N2CCCC12` (centres unmarked) [Cyclo-His-Pro], in data set [1] (plasma), the “time at which plasma CHP levels peak” value is 4 h and the “time at which plasma CHP levels return to normal” value is on record as at most 24 h. For the same compound, in data set [1], the “absorption from the gastrointestinal tract” value is reported as “absorbed from the gastrointestinal tract”; the “side effects based on physical and blood chemistry examinations” value is listed as “No side effects”. Also, the “heme oxygenase 1 expression via activation of Nrf-2 ARE signaling” value in the data set with heme oxygenase 1 is given as “up-regulate heme oxygenase 1”.
